Assay results taken from patent US9499484B2, “Indole, indoline derivatives, compositions comprising them and uses thereof” (priority 2012, dated 2016).
Structures can show the parent of a compound that is named as a salt.

Structure (SMILES)	melting point [°C]
CCN(C)C(=O)Oc1ccc2c(C=O)c[nH]c2c1	170 to 175
CCOC(=O)CCc1c[nH]c2cccc(OC(=O)N(C)CC)c12	85 to 87
CCN(C)C(=O)Oc1cccc2[nH]cc(/C=C/C(=O)O)c12	164 to 166
CCCCN(C)C(=O)Oc1ccc2cc[nH]c2c1	84 to 87
COC(=O)/C=C/c1c[nH]c2cc(O)ccc12	195 to 200
COc1ccc(N(C)C(=O)Oc2cccc3[nH]ccc23)cc1	113 to 115
COC(=O)CCc1cn(C)c2cccc(O)c12	123 to 124
COC(=O)/C=C/c1cn(C)c2cccc(OCc3ccccc3)c12	122 to 125
COC(=O)/C=C/c1c[nH]c2c(OCc3ccccc3)cccc12	134 to 137
CCN(C)C(=O)Oc1cccc2[nH]ccc12	113 to 115
COC(=O)CCc1c[nH]c2cccc(O)c12	93 to 95
CCN(C)C(=O)Oc1cccc2[nH]cc(CCC(N)=O)c12	64 to 66
COC(=O)/C=C/c1cn(C)c2cc(OCc3ccccc3)ccc12	150 to 155
COC(=O)CCc1c[nH]c2cc(O)ccc12	93 to 96
COC(=O)CCc1cn(C)c2cccc(OC(=O)N(C)c3ccc(OC)cc3)c12	110 to 112
CCN(C)C(=O)Oc1cccc2[nH]cc(/C=C/C(=O)OC)c12	128 to 131
CCN(C)C(=O)Oc1cccc2[nH]cc(/C=C/[N+](=O)[O-])c12	171 to 174
COc1ccc(N(C)C(=O)Oc2cccc3[nH]cc(CCC(=O)O)c23)cc1	194 to 196
COc1ccc(N(C)C(=O)Oc2ccc3c(C=O)c[nH]c3c2)cc1	218 to 220
CCN(C)C(=O)Oc1ccc2cc[nH]c2c1	105 to 108
COc1ccc(N(C)C(=O)Oc2ccc3cc[nH]c3c2)cc1	168 to 173
CCN(C)C(=O)Oc1ccc2c(CCC(=O)OC)cn(C)c2c1	49 to 52

Structure (SMILES)	melting point [°C]
CCN(C)C(=O)Oc1cccc2c1ccn2C	42 to 45
CCCCN(C)C(=O)Oc1ccc2c(/C=C/C(=O)OC)cn(C)c2c1	65 to 70
COC(=O)CCc1c[nH]c2c(O)cccc12	89 to 94
CCN(C)C(=O)Oc1ccc2c(CCC(=O)O)c[nH]c2c1	132 to 136
COC(=O)CCC1CN(C)c2cc(O)ccc21 (stereo not shown) (as salt: hydrochloride)	104 to 108
COc1ccc(N(C)C(=O)Oc2cccc3[nH]cc(C=O)c23)cc1	173 to 175
CCN(C)C(=O)Oc1ccc2c(/C=C/C(=O)OC)c[nH]c2c1	142 to 145
CCN(C)C(=O)Oc1cccc2c1c(C=O)cn2C	85 to 88
CCN(C)C(=O)Oc1ccc2ccn(CCC(=O)OC)c2c1	94 to 96
COc1ccc(N(C)C(=O)Oc2cccc3c2c(CCC(=O)O)cn3C)cc1	161 to 163
COC(=O)CCc1cn(C)c2cc(O)ccc12	35 to 40
O=C(O)/C=C/c1c[nH]c2cccc(OCc3ccccc3)c12	163 to 164
COC(=O)/C=C/c1c[nH]c2cccc(OC(=O)N(C)c3ccc(OC)cc3)c12	155 to 157
CCN(C)C(=O)Oc1ccc2c(C=O)cn(C)c2c1	124 to 128
CCN(C)C(=O)Oc1cccc2c(CCC(=O)O)c[nH]c12	98 to 101
COC(=O)/C=C/c1c[nH]c2cc(OCc3ccccc3)ccc12	174 to 178
CCCCN(C)C(=O)Oc1ccc2c(C=O)cn(C)c2c1	90 to 95
COC(=O)/C=C/c1c[nH]c2cccc(OCc3ccccc3)c12	153 to 156
O=C(O)CCc1c[nH]c2cc(O)ccc12	197 to 200
COC(=O)/C=C/c1cn(C)c2cc(OC(=O)N(C)c3ccc(OC)cc3)ccc12	120 to 125
O=C(O)CCc1c[nH]c2cccc(O)c12	118 to 120
